Data reported in PubChem BioAssay (NCI).
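In this assay, cells in 96-well plates receive the compound at five concentrations for 48 hours. Endpoints are linearly interpolated between the surrounding concentrations. The concentration for 50% growth inhibition is given as GI50. Definition used: TGI = concentration required for complete inhibition of growth.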

What was measured:
Assay in all cases: growth of human tumour cells (NCI), 48 h
OVCAR-4 ovarian = test system: OVCAR-4 ovarian
NCI-H23 lung = test system: NCI-H23 lung
EKVX NSCLC = test system: EKVX NSCLC
A498 renal = test system: A498 renal
HCT-116 colon = test system: HCT-116 colon
NCI-H460 lung = test system: NCI-H460 lung
HS 578T breast = test system: HS 578T breast
RPMI-8226 leukemia = test system: RPMI-8226 leukemia
BT-549 breast = test system: BT-549 breast
SK-MEL-28 melanoma = test system: SK-MEL-28 melanoma
MALME-3M melanoma = test system: MALME-3M melanoma
SF-268 CNS = test system: SF-268 CNS
MOLT-4 leukemia = test system: MOLT-4 leukemia
OVCAR-3 ovarian = test system: OVCAR-3 ovarian
T-47D breast = test system: T-47D breast
RXF 393 renal = test system: RXF 393 renal
HL-60(TB) leukemia = test system: HL-60(TB) leukemia
SF-295 CNS = test system: SF-295 CNS
SF-539 CNS = test system: SF-539 CNS
LOX IMVI melanoma = test system: LOX IMVI melanoma
SN12C renal = test system: SN12C renal
HCT-15 colon = test system: HCT-15 colon
M14 melanoma = test system: M14 melanoma
MDA-MB-435 = test system: MDA-MB-435
MCF7 breast = test system: MCF7 breast
IGROV1 ovarian = test system: IGROV1 ovarian
COLO 205 colon = test system: COLO 205 colon
NCI-H226 lung = test system: NCI-H226 lung
OVCAR-5 ovarian = test system: OVCAR-5 ovarian
DU-145 prostate = test system: DU-145 prostate
HOP-62 NSCLC = test system: HOP-62 NSCLC
ACHN renal = test system: ACHN renal
SW-620 colon = test system: SW-620 colon
HT29 colon = test system: HT29 colon
U251 CNS = test system: U251 CNS
UACC-257 melanoma = test system: UACC-257 melanoma
KM12 colon = test system: KM12 colon
NCI-H522 lung = test system: NCI-H522 lung
SR leukemia = test system: SR leukemia
CCRF-CEM leukemia = test system: CCRF-CEM leukemia
HCC-2998 colon = test system: HCC-2998 colon
OVCAR-8 ovarian = test system: OVCAR-8 ovarian
SNB-19 CNS = test system: SNB-19 CNS
SK-MEL-5 melanoma = test system: SK-MEL-5 melanoma
PC-3 prostate = test system: PC-3 prostate
NCI/ADR-RES ovarian = test system: NCI/ADR-RES ovarian
K-562 leukemia = test system: K-562 leukemia
UACC-62 melanoma = test system: UACC-62 melanoma
A549 NSCLC = test system: A549 NSCLC
786-0 renal = test system: 786-0 renal
HOP-92 NSCLC = test system: HOP-92 NSCLC
SK-OV-3 ovarian = test system: SK-OV-3 ovarian
CAKI-1 renal = test system: CAKI-1 renal
TK-10 renal = test system: TK-10 renal

Q: What does the source list for `CN1C(=O)[C@@H](CC2CCCC2)N(C2CCCC2)c2nc(Nc3cc(Cl)c(O)c(Cl)c3)ncc21`?
A: GI50 (OVCAR-4 ovarian): 25.8 µM; TGI (OVCAR-4 ovarian): > 100 µM; GI50 (NCI-H23 lung): 31.3 µM; TGI (NCI-H23 lung): > 100 µM; GI50 (EKVX NSCLC): 22.4 µM; TGI (EKVX NSCLC): > 100 µM; GI50 (A498 renal): 35.4 µM; TGI (A498 renal): > 100 µM; GI50 (HCT-116 colon): 13.1 µM; TGI (HCT-116 colon): 30.4 µM; GI50 (NCI-H460 lung): 23.5 µM; TGI (NCI-H460 lung): 90.3 µM; GI50 (HS 578T breast): 21.6 µM; TGI (HS 578T breast): > 100 µM; GI50 (RPMI-8226 leukemia): 10.4 µM; TGI (RPMI-8226 leukemia): 49 µM; GI50 (BT-549 breast): 18.2 µM; TGI (BT-549 breast): 53.2 µM; GI50 (SK-MEL-28 melanoma): 22.6 µM; TGI (SK-MEL-28 melanoma): > 100 µM; GI50 (MALME-3M melanoma): 20.7 µM; TGI (MALME-3M melanoma): 75.2 µM; GI50 (SF-268 CNS): 33 µM; TGI (SF-268 CNS): > 100 µM; GI50 (MOLT-4 leukemia): 12.2 µM; TGI (MOLT-4 leukemia): 56 µM; GI50 (OVCAR-3 ovarian): 21.8 µM; TGI (OVCAR-3 ovarian): 73.9 µM; GI50 (T-47D breast): 12.9 µM; TGI (T-47D breast): 74.9 µM; GI50 (RXF 393 renal): 13.5 µM; TGI (RXF 393 renal): 52 µM; GI50 (HL-60(TB) leukemia): 10.3 µM; TGI (HL-60(TB) leukemia): 58.1 µM; GI50 (SF-295 CNS): 23.3 µM; TGI (SF-295 CNS): 81.9 µM; GI50 (SF-539 CNS): 19.8 µM; TGI (SF-539 CNS): > 100 µM; GI50 (LOX IMVI melanoma): 19.5 µM; TGI (LOX IMVI melanoma): 49.3 µM; GI50 (SN12C renal): 21.4 µM; TGI (SN12C renal): > 100 µM; GI50 (HCT-15 colon): 14.6 µM; TGI (HCT-15 colon): 56.2 µM; GI50 (M14 melanoma): 22.2 µM; TGI (M14 melanoma): > 100 µM; GI50 (MDA-MB-435): 27.8 µM; TGI (MDA-MB-435): > 100 µM; GI50 (MCF7 breast): 15.2 µM; TGI (MCF7 breast): > 100 µM; GI50 (IGROV1 ovarian): 32.9 µM; TGI (IGROV1 ovarian): > 100 µM; GI50 (COLO 205 colon): 23 µM; TGI (COLO 205 colon): 56.1 µM; GI50 (NCI-H226 lung): 25 µM; TGI (NCI-H226 lung): > 100 µM; GI50 (OVCAR-5 ovarian): 27.7 µM; TGI (OVCAR-5 ovarian): > 100 µM; GI50 (DU-145 prostate): 27.6 µM; TGI (DU-145 prostate): > 100 µM; GI50 (HOP-62 NSCLC): 27.9 µM; TGI (HOP-62 NSCLC): > 100 µM; GI50 (ACHN renal): 18.7 µM; TGI (ACHN renal): > 100 µM; GI50 (SW-620 colon): 28.2 µM; TGI (SW-620 colon): > 100 µM; GI50 (HT29 colon): 26.7 µM; TGI (HT29 colon): 88.3 µM; GI50 (U251 CNS): 21.6 µM; TGI (U251 CNS): 86.9 µM; GI50 (UACC-257 melanoma): 25.1 µM; TGI (UACC-257 melanoma): > 100 µM; GI50 (KM12 colon): 37.5 µM; TGI (KM12 colon): > 100 µM; GI50 (NCI-H522 lung): 10.8 µM; TGI (NCI-H522 lung): > 100 µM; GI50 (SR leukemia): 13 µM; TGI (SR leukemia): 62.1 µM; GI50 (CCRF-CEM leukemia): 18.6 µM; TGI (CCRF-CEM leukemia): 84.2 µM; GI50 (HCC-2998 colon): 29.8 µM; TGI (HCC-2998 colon): > 100 µM; GI50 (OVCAR-8 ovarian): 28.4 µM; TGI (OVCAR-8 ovarian): > 100 µM; GI50 (SNB-19 CNS): 28.3 µM; TGI (SNB-19 CNS): > 100 µM; GI50 (SK-MEL-5 melanoma): 17.4 µM; TGI (SK-MEL-5 melanoma): 32.9 µM; GI50 (PC-3 prostate): 14.1 µM; TGI (PC-3 prostate): > 100 µM; GI50 (NCI/ADR-RES ovarian): 20.7 µM; TGI (NCI/ADR-RES ovarian): > 100 µM; GI50 (K-562 leukemia): 14.6 µM; TGI (K-562 leukemia): > 100 µM; GI50 (UACC-62 melanoma): 11.1 µM; TGI (UACC-62 melanoma): 27.4 µM; GI50 (A549 NSCLC): 22.1 µM; TGI (A549 NSCLC): > 100 µM; GI50 (786-0 renal): 15.2 µM; TGI (786-0 renal): 47.2 µM; GI50 (HOP-92 NSCLC): 13.6 µM; TGI (HOP-92 NSCLC): 66.7 µM; GI50 (SK-OV-3 ovarian): 17.1 µM; TGI (SK-OV-3 ovarian): 75.9 µM; GI50 (CAKI-1 renal): 23.1 µM; TGI (CAKI-1 renal): > 100 µM; GI50 (TK-10 renal): 27.2 µM; TGI (TK-10 renal): > 100 µM
